According to US20100291151A1, “1-METHYLPYRAZOLE MODULATORS OF SUBSTANCE P, CALCITONIN GENE-RELATED PEPTIDE, ADRENERGIC RECEPTOR, AND/OR 5-HT RECEPTOR” (priority 2009, published 2010):

Experiments:
Type in all cases: in vitro ADME
Supersomes CYP3A4 = biological target: T1, Supersomes CYP3A4 (Homo sapiens, UniProt P08684); assay: Individual recombinant CYP isoform stability assay, CYP3A4; conditions: 100 pmol per mL CYP3A4, 5 microgram per mL compound, 37° C., 0-60 minutes
T1 construct: purchased
Method: (§1) In Vitro Individual Recombinant CYP Isoform Stability Assays
(§2) Individual recombinant CYP isoform stability assays were conducted with Supersomes™ CYP2C19, CYP3A4, CYP3A5, CYP2D6, CYP2C8, and CYP2C9. The CYP isoforms were individually taken up in a NADPH-generating system (4.4 mM NADPH, 51.2 mM glucose 6-phosphate, 12 units per mL glucose 6-phosphate dehydrogenase and 6.6 mM magnesium chloride) in 2% sodium bicarbonate. The final assay concentrations were 100 pmol per mL for the following isoforms: CYP3A4, CYP2C19, and CYP2D6; other CYP isoforms final assay concentrations were 150 pmol per mL, including: CYP1A2 and CYP2C9; and yet other CYP isoforms final assay concentrations were 200 pmol per mL, including: CYP3A5 and CYP2C8. Test compounds were prepared as solutions in 20% acetonitrile-water and added to the assay mixture (final assay concentration 5 microgram per mL) and incubated at 37° C. Final concentration of acetonitrile in the assay should be <1%. Aliquots (50 μL) were taken out at times 0, 15, 30, 45, and 60 minutes, and diluted with ice cold acetonitrile (200 μL) to stop the reactions. Samples were centrifuged at 12,000 RPM for 10 minutes to precipitate proteins. Supernatants were transferred to microcentrifuge tubes and stored for LC/MS/MS analysis of the degradation half-life of the test compounds. […]

Supersomes CYP3A5 = biological target: T2, Supersomes CYP3A5 (Homo sapiens, UniProt P20815); assay: Individual recombinant CYP isoform stability assay, CYP3A5; conditions: 200 pmol per mL CYP3A5, 5 microgram per mL compound, 37° C., 0-60 minutes
T2 construct: purchased
Method: as §1, §2

Supersomes CYP2C8 = biological target: T3, Supersomes CYP2C8 (Homo sapiens, UniProt P10632); assay: Individual recombinant CYP isoform stability assay, CYP2C8; conditions: 200 pmol per mL CYP2C8, 5 microgram per mL compound, 37° C., 0-60 minutes
T3 construct: purchased
T3 sequence (P10632 1-490): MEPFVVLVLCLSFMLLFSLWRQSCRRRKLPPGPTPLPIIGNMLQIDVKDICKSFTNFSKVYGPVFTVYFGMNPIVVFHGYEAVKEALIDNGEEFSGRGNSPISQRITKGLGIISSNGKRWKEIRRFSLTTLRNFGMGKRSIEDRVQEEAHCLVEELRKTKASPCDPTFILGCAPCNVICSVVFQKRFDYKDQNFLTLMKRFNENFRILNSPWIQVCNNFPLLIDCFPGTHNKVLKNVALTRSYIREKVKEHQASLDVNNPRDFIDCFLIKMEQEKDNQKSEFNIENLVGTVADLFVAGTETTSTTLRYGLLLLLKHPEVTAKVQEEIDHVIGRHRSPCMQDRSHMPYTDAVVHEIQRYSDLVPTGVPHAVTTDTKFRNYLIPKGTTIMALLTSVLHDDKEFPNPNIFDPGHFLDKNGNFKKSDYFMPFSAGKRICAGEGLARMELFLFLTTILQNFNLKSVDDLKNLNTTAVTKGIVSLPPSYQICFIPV
Method: as §1, §2

Supersomes CYP2C9 = biological target: T4, Supersomes CYP2C9 (Homo sapiens, UniProt P11712); assay: Individual recombinant CYP isoform stability assay, CYP2C9; conditions: 150 pmol per mL CYP2C9, 5 microgram per mL compound, 37° C., 0-60 minutes
T4 construct: purchased
Method: as §1, §2

T4 sequence (P11712 whole entry, canonical isoform): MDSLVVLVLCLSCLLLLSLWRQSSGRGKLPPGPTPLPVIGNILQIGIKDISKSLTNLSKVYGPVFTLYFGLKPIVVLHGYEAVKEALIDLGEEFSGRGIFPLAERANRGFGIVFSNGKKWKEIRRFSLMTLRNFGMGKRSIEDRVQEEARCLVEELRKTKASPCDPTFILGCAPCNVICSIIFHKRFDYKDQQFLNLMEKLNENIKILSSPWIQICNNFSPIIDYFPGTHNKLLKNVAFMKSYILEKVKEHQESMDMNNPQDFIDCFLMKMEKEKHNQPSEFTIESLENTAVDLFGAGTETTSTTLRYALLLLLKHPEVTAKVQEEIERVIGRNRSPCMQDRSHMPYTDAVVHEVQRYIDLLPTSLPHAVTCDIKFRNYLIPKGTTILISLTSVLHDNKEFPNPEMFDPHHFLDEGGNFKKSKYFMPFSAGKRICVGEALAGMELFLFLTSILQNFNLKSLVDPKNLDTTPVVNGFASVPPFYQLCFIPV
T2 sequence (P20815 whole entry, canonical isoform): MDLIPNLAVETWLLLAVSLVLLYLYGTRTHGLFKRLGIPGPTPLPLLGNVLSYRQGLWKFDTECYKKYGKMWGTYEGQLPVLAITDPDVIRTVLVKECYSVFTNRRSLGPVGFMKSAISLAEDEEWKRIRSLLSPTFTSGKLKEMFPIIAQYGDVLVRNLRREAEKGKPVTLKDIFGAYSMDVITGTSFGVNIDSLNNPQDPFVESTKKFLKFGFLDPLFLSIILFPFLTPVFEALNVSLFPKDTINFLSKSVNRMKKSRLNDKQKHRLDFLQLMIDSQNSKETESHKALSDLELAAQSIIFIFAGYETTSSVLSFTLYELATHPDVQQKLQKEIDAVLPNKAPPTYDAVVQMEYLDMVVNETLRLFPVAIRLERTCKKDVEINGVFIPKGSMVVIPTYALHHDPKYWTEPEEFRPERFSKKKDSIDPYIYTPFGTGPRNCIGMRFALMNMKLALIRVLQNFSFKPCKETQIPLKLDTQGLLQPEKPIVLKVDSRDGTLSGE
T1 sequence (P08684 whole entry, canonical isoform): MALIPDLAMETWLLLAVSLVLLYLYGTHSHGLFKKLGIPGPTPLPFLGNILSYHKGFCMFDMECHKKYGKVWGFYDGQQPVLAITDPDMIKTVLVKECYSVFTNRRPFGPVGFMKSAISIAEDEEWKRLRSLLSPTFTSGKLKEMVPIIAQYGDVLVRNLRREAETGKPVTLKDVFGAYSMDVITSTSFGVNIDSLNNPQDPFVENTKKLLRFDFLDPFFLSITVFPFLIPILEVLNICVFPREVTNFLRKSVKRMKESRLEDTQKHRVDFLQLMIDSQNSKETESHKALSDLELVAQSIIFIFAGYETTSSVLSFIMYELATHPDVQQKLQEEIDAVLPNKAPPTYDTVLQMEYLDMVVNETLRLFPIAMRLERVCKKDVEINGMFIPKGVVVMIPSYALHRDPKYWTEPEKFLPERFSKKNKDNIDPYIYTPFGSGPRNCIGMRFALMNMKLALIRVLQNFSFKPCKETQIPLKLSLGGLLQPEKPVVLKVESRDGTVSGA

- metabolism by CYP3A4 (Supersomes CYP3A4): not metabolized
- metabolism by CYP3A5 (Supersomes CYP3A5): not metabolized
- metabolism by CYP2C8 (Supersomes CYP2C8): not metabolized
- metabolism by CYP2C9 (Supersomes CYP2C9): not metabolized
SMILES: CN(C)CCOC(c1ccccc1)c1ccnn1C (stereo not shown) [Cizolirtine, N,N-dimethyl-2-[(1-methyl-1H-pyrazol-5-yl)phenylmethoxy]ethanamine]
